Measurements as given in patent EP2703005A1, “Inhibitors of alpha6 Integrin/E-Cadherin Complex” (Università Degli Studi Di Torino, priority 2012, dated 2014).

Key:
[1] = biological target: T1, β4 integrin (Homo sapiens, UniProt P16144+P23229); assay: Affinity purification of liver metastasis lysates on column-immobilized peptide, ELISA for integrin subunits; assay type: binding; conditions: lysates of 7 pooled human liver metastases, versus salt and control peptide fractions
T1 construct: from tissue; host or cells: 7 pooled human liver metastases secondary to CRC
Protocol: Validation of MTS-phage targets. Binding of single phage clones on whole cells was performed with a 10^9 TU input of each phage on 5x10^5 suspended cells in binding medium as described (Chambers et al. 2002. Nat Rev Cancer, 2:563-572). For overlay binding experiments, 5 x10^9 TU/ml of each phage was incubated with 10 µm tissue sections of OCT-frozen tissues and detected as described , with the EnVision system (DAKO) and 3-amino-9-ethylcarbazole (AEC) as substrate (Arap et al 2002, Nat Med, 8:121-127; Padua et al. 2008, Cell, 133:66-77). Phage overlay images were acquired with an EC3 Leica camera (Leica Microsystems, Milan, Italy). […] Protein amounts in collected fractions were followed by reading their OD at 280 nm, and selected fractions were concentrated by the use of Microcon centrifugal filter devices with cut-off 10,000 (Millipore) to remove residual synthetic peptides. Proteins were quantified with the Coomassie (Bradford) Protein Assay Kit (Pierce), and 500 ng of each sample was evaluated for the presence of specific integrin subunits with a standard ELISA assay. In parallel, the relative amount of targeted proteins was assessed by phage binding as described (66), on 2 µg of each sample and with an input of 10^9 TU of fd-tet or […]-phage. […]

[2] = system: NCI-H630 cells; assay: Cell adhesion to peptides and proteins coated on microwells; assay type: cell-based, human
Description: Preparation of cell lines with silenced expression of the MTS-tageted genes. A transient gene silencing approach was applied to cells used exclusively for short-term, in vitro experiments. NCI-H630 cells were transduced with ON-TARGETplus SmartPOOL siRNA for ITGA6 and CDH1, or with control siRNA (Dharmacon, Lafayette, CO). For each experimental point, 2x10^5 cells were reverse-transfected with either control, ITGA6, CDH1, or both siRNA pools, according to the manufacturer's protocol. To quantify the downmodulation of targeted genes, RNA and protein levels were evaluated after 24 and 72 hours, respectively. A stable gene silencing approach was preferred for cells used for long-term, in vivo experiments. For this purpose, 2x10^5 HCT-116m, SW-48, HT-29, or DLD-1 cells were transfected with shRNA plasmid pools targeting ITGA6 (sc-43129-SH) or CDH1 (sc-35242-SH), or with non-targeting control shRNA plasmid pool A (sc-108060) (all from Santa Cruz Biotechnologies), according to the manufacturer's protocol. Following selection in medium supplemented with 2.5 µg/ml puromycin, 6 clones for each experimental point were subjected to dotblot analysis to confirm selective protein down-regulation. […]
(§1) Adhesion, proliferation, and migration assays. […] Adhered cells were counted manually under a light microscope.

[3] = system: DLD-1; assay: Liver adhesion assay on frozen sections of grossly normal human liver; assay type: cell-based; conditions: 30 minutes, versus control peptide
Protocol: (§2) Adhesion, proliferation, and migration assays. All the described in vitro tests were performed at least in triplicate. For investigation of cell adhesion to peptides and proteins, 1 µg of each substrate was incubated per well of a 96 well-plate for 1 hour at 37°C. After a blocking step in IMDM, 2% FCS for 1 hour at 37°C, 10^4 cells were allowed to adhere for 1 hour at 37°C. Samples were washed gently in PBS, and cells were fixed in 8% glutaraldehyde and stained in 0.25% crystal violet in 10% methanol. For tissue adhesion, OCT-frozen grossly normal liver samples were cut into 10 µm sections. Tissues were blocked in IMDM, 2% FCS for 30 minutes at 37°C, followed by incubation with 5x10^4 cells in 5% CO2 at 37°C, for the indicated periods of time. Samples were washed 4 times in the same medium and once in PBS, fixed in 4% para-formaldehyde, and stained with hematoxylin (BioOptica). Adhered cells were counted manually under a light microscope.

[4] = system: HCT-116 cells; assay: as above; assay type: cell-based; conditions: non-metastatic cells with very low levels of the receptor proteins; 30 minutes
Protocol: as §2

[5] = system: HCT-116m; assay: as above; assay type: cell-based; conditions: 30 minutes, versus control peptide
Protocol: as §2

[6] = system: HT-29; assay: as above; assay type: cell-based; conditions: 30 minutes, versus control peptide
Protocol: as §2

[7] = system: NCI-H630 cells; assay: as above; assay type: cell-based; conditions: liver sections from 27 patients, 30 minutes, versus control peptide
Protocol: as §2

[8] = system: SW-48; assay: as above; assay type: cell-based; conditions: 30 minutes, versus control peptide
Protocol: as §2

[9] = system: U293 cells transduced with α6 integrin, E-cadherin or both; assay: as above; assay type: cell-based; conditions: 30 minutes, versus control peptide
Description: (§3) Preparation of cells stably overexpressing the MTS-targeted proteins. The cDNA of FLAG-tagged human angiopoietin-like 6, inserted into pcDNA3.1 (+).Neo vector (pcDNA3.ANGL6), was a gift from Dr. Y. Oike (Japan Science and Technology Agency, Japan (Minn et al., 2007, Proc Natl Acad Sci USA, 104:6740-6745); the cDNA of human E-cadherin, cloned into a pcDNA3.1 (+). Neo vector (pcDNA3.CAD1) was a gift from Dr. C. Gottardi (North Western University Medical School, Chicago, IL (Bos, et al. 2009, Nature 459:1005-1009); the cDNA of β4 integrin, cloned into a PRK5 plasmid (pRK5.ITB4), was purchased from Addgene (Cambridge, MA); the cDNA of human α6A integrin, inserted in pLXSN plasmid (pLα6SN (Kuo et al. 1995, Proc Natl Acad Sci USA, 92:12085-12089), was a gift of Dr. A. Magrelli (La Sapienza University, Rome, Italy). The latter was PCR-amplified with the following primer pair: • 5'-[…]-3' (SEQ ID No 28) and • 5'-[…]-3' (SEQ ID No 29) and subcloned into a pcDNA3.1 (+). Hygro vector between HindIII and ApaI sites to obtain the pcDNA3.ITA6A plasmid. […]
as §1

[10] = system: U293 cells stably overexpressing E-cadherin, α6 integrin or both; assay: Cell proliferation assay (crystal violet); assay type: cell-based, human; conditions: 100 µM peptide, 10% FCS, versus control peptide
Description: as §3, with “(+).” for “(+). Hygro vector between HindIII and ApaI sites to obtain the pcDNA3.ITA6A plasmid.”
To test the effects of peptides on cell proliferation, we seeded 2x10^4 cells per well in a 24-well plate, in the presence of either control or […] peptide (100 µM). […] Cell growth was evaluated by absorbance at 590 nm in a microplate reader (Perkin Elmerm Waltham, MA). A calibration curve was set up with known numbers of cells and a linear correlation between absorbance and cell counts was established up to 5x10^5 cells/well.

[11] = system: LS-174T cells; assay: Hepatic colonization model, intrahepatic injection of CRC cells; assay type: in vivo, CD-1 nude mice; conditions: 5x10^6 cells/mouse injected with 100 µM soluble peptide, 14 days, versus vehicle
Protocol: Animal models of human metastatic CRC. Six-week female CD1-nude mice were purchased from Charles River (Lecco, Italy). Animals were subjected to intraperitoneal anaesthesia with a mixture composed by 0.75 mg/ml xylazine (Xilor®, BIO98, Milan, Italy), 1 mg/ml tiletamine - 1mg/ml zolazepam (Zoletil®, Virbac, Milan, Italy), in physiological solution. After the mice were deeply asleep, a midline incision was performed and target organs were gently exposed. Two or five million suspended cells were injected in 50 µl of culture medium intrasplenically (Tibbettset al. 1993. Cancer, 71:315-321) or into the median liver lobe (Grothey, et al. 2009. Nat Rev Clin Oncol, 6:507-518), respectively. To investigate a pharmacological intervention on liver homing and/or colonization of CRC cells, animals were divided in two arms, receiving medium alone (vehicle) or supplemented with 100 µM […] peptide. The wound was closed by a double suture and each animal was given 0.1 mg caprofen (Rymadil®, Pfizer, Milan, Italy) in a physiological solution to allow post-operative pain relief and rehydration. Mice were strictly monitored until completely awake, and oral ampicillin was administered for 5 days following the surgery. […] External metastatic areas were quantified using ImageJ software.

[12] = system: DLD-1; assay: Liver homing model, intrasplenic implantation; assay type: in vivo, CD-1 nude mice; conditions: 2x10^6/mouse intrasplenically with 100 µM soluble peptide, versus vehicle; effect stated as not significant in this model
Protocol: (§4) Animal models of human metastatic CRC. Six-week female CD1-nude mice were purchased from Charles River (Lecco, Italy). Animals were subjected to intraperitoneal anaesthesia with a mixture composed by 0.75 mg/ml xylazine (Xilor®, BIO98, Milan, Italy), 1 mg/ml tiletamine - 1mg/ml zolazepam (Zoletil®, Virbac, Milan, Italy), in physiological solution. After the mice were deeply asleep, a midline incision was performed and target organs were gently exposed. Two or five million suspended cells were injected in 50 µl of culture medium intrasplenically (Tibbettset al. 1993. Cancer, 71:315-321) or into the median liver lobe (Grothey, et al. 2009. Nat Rev Clin Oncol, 6:507-518), respectively. To investigate a pharmacological intervention on liver homing and/or colonization of CRC cells, animals were divided in two arms, receiving medium alone (vehicle) or supplemented with 100 µM […] peptide. The wound was closed by a double suture and each animal was given 0.1 mg caprofen (Rymadil®, Pfizer, Milan, Italy) in a physiological solution to allow post-operative pain relief and rehydration. Mice were strictly monitored until completely awake, and oral ampicillin was administered for 5 days following the surgery. Mice were euthanized at the indicated time points, and organs were photographed with a PL-200 digital photocamera (Samsung Electronics, Milan, Italy). External metastatic areas were quantified using ImageJ software.

[13] = system: HCCM-1544; assay: Liver homing model, intrasplenic implantation; assay type: in vivo, CD-1 nude mice; conditions: 2x10^6/mouse intrasplenically with 100 µM soluble peptide, versus vehicle
Protocol: as §4

[14] = system: HCT-116m; assay: Liver homing model, intrasplenic implantation; assay type: in vivo, CD-1 nude mice; conditions: 2x10^6/mouse intrasplenically with 100 µM soluble peptide, versus vehicle; 20 days
Protocol: as §4

[15] = system: LS-174T; assay: Liver homing model, intrasplenic implantation; assay type: in vivo, CD-1 nude mice; conditions: 2x10^6/mouse intrasplenically with 100 µM soluble peptide, versus vehicle
Protocol: as §4

[16] = system: SW-48; assay: Liver homing model, intrasplenic implantation; assay type: in vivo, CD-1 nude mice; conditions: 2x10^6/mouse intrasplenically with 100 µM soluble peptide, versus vehicle
Protocol: as §4

[17] = biological target: T2, α6 integrin/E-cadherin (Homo sapiens, UniProt P12830+P23229); assay: Confocal imaging of α6 integrin and E-cadherin in explanted liver tumor tissues; assay type: in vivo, CD-1 nude mice; conditions: LS-174T liver tumors, cells injected with soluble peptide, 14 days
T2 construct: subjected to immunostaining with anti-α6 integrin and anti-E-cadherin antibodies followed by confocal microscopic imaging; endogenous in cells; host or cells: human CRC cells (LS-174T; also HCT-116m, SW-48, DLD-1, HT-29) xenografted into the liver of CD-1 nude mice
Protocol: Immunostaining. OCT-frozen tissues were cut in 10 µm sections, paraffin-embedded tissues in 5 µm sections. For immunostaining of cell lines, 10^4 cells were plated on a SuperFrost Plus glass slide (Menzel-Glaser, Braunschweig, Germany) and were grown for 24 hours followed by fixation in 4% paraformaldehyde in PBS for 5 minutes at room temperature. Immunostaining was performed according to standard protocols. Fluorescent images were acquired with either a DMIRE2 confocal microscope or with a DMI 3000D microscope equipped with a DFC 360FX digital camera (all from Leica. Visible images were acquired with either an EC3 Leica (immunostaining of frozen tissues) or a High-Performance IEEE 1394 FireWire Digital CCD Camera (QIMAGING, Surrey, BC, Canada) (immunostaining of paraffin-embedded tissues). For the quantification of specific fluorescent signals, 3 confocal images (1024x1024 pixels, equivalent to 375x375 µm) for each sample, acquired by keeping all the parameters constant, were divided in two 8-bit images corresponding to the red and green fluorescence channels. […]
Animal models of human metastatic CRC. […] Mice were strictly monitored until completely awake, and oral ampicillin was administered for 5 days following the surgery. […] External metastatic areas were quantified using ImageJ software.

T2 sequence (P23229 24-1073 isoform P23229-2 limits assumed): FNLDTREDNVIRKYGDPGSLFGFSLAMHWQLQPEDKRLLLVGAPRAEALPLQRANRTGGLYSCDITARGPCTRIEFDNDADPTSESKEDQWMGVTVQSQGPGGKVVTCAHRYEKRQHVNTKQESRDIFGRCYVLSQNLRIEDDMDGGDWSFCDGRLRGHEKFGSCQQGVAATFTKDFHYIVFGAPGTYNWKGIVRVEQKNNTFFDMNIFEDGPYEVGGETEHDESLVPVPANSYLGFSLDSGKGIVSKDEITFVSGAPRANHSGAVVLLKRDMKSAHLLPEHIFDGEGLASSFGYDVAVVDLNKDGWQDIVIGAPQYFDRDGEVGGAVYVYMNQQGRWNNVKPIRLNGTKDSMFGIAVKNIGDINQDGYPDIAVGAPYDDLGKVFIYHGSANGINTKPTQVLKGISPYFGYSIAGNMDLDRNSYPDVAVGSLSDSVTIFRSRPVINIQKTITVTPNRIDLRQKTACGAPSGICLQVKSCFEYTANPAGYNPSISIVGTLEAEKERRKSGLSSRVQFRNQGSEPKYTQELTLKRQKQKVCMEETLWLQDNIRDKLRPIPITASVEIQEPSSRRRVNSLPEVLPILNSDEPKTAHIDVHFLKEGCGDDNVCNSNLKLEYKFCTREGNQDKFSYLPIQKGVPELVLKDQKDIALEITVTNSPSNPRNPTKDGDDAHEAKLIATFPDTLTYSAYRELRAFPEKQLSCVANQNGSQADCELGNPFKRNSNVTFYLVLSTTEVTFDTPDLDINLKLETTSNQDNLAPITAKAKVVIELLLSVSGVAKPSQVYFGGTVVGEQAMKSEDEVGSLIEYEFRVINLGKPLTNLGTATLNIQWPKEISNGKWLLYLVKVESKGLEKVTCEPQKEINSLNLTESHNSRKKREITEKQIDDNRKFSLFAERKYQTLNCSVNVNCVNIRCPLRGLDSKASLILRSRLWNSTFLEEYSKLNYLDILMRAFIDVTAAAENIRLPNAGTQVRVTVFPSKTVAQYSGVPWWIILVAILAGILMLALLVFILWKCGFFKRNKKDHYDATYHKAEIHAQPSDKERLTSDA
T2 sequence (P12830 155-882): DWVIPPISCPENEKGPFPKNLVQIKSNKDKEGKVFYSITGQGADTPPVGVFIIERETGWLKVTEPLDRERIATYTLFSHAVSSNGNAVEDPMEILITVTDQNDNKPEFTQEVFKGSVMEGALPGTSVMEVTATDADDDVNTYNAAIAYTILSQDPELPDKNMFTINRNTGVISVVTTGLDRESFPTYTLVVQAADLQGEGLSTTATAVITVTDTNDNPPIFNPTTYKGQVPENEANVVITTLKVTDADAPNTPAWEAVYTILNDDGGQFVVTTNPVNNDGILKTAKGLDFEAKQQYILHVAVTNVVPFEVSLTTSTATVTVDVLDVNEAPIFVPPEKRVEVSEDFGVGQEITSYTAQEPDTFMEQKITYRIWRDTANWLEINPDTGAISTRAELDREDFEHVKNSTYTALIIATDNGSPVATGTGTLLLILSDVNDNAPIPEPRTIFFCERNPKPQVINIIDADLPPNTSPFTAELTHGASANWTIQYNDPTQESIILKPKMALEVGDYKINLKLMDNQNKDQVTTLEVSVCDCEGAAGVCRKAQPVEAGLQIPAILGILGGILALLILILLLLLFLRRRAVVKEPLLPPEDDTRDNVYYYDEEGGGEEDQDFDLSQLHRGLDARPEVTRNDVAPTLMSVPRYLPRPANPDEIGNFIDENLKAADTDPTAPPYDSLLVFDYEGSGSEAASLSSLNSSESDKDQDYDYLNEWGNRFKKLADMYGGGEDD
T2 sequence (P16144 28-1822 partner): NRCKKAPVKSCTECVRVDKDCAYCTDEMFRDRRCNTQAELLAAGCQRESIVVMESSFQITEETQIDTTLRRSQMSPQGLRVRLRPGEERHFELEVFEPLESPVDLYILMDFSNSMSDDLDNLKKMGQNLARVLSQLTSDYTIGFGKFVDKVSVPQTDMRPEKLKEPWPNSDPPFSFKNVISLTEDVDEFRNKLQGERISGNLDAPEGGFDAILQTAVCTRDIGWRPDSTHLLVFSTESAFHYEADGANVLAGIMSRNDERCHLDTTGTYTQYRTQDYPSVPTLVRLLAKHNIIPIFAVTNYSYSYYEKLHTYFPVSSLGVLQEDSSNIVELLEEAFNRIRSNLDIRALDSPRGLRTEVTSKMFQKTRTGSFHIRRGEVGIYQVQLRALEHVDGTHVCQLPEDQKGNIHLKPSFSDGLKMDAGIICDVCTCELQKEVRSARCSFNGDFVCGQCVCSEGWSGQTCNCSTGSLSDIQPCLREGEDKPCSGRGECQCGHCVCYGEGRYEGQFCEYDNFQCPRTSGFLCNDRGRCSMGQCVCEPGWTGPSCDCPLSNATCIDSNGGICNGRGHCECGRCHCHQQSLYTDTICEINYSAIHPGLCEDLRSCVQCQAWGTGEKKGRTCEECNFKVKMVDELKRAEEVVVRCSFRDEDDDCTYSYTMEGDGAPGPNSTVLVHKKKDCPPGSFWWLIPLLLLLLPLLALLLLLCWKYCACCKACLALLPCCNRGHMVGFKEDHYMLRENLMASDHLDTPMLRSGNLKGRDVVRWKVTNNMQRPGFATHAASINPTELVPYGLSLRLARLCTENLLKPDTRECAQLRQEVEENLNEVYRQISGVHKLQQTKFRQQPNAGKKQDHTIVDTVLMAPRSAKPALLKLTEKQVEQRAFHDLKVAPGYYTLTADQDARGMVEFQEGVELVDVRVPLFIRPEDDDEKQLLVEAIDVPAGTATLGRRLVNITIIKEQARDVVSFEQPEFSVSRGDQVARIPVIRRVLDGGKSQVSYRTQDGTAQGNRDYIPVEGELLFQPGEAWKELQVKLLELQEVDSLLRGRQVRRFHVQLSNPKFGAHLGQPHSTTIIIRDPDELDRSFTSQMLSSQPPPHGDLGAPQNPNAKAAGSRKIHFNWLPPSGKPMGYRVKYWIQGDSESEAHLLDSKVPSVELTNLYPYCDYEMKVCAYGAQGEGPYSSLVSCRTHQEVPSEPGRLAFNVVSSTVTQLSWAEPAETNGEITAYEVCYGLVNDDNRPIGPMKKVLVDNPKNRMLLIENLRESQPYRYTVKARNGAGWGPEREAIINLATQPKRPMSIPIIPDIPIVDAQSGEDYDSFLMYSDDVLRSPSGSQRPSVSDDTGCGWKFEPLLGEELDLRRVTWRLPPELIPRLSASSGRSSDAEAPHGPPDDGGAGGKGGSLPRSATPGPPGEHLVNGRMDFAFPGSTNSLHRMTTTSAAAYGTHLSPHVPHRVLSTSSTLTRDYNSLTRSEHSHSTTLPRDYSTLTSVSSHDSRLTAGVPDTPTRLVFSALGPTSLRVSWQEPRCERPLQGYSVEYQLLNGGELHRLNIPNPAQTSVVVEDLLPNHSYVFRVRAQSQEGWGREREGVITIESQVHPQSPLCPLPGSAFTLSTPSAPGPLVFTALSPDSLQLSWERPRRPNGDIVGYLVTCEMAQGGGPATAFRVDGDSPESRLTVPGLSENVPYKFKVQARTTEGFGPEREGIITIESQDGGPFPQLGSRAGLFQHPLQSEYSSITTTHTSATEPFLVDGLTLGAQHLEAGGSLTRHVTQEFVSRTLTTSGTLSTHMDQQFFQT
T1 sequence (P16144 28-1822): as the sequence (P16144 28-1822 partner) above
T1 sequence (P23229 24-1073 isoform P23229-2 limits assumed): as the sequence (P23229 24-1073 isoform P23229-2 limits assumed) above

enrichment of integrin subunit in peptide- and phage-targeted protein fractions [1]: substantial enrichment in the β4 subunit
overall morphology and levels of receptor complex in the tumors [17]: unchanged
Sequence: CGIYRLRSC [Targeting synthetic LRS-motif peptide, from New England Peptides]
adherence of cells to microwells coated with the peptide ([2]; NCI-H630 cells in which ITGA6 or both mRNAs were silenced, 1 µg substrate per well, 1 hour): impaired adherence
adherence of cells to microwells coated with the peptide ([2]; NCI-H630 cells with both α6 integrin and E-cadherin downmodulated): particularly pronounced
adhesiveness on hepatic tissues [3]: significantly inhibited
adhesion to normal hepatic tissues [4]: not influenced
adhesiveness on hepatic tissues [5]: significantly inhibited
adhesiveness on hepatic tissues [6]: significantly inhibited
cell adhesion to human liver sections [7]: significant decrease in cell adhesion
adhesiveness on hepatic tissues [8]: significantly inhibited
liver adhesion [9]: inhibited liver adhesion of U293 cells only when they concomitantly expressed α6 integrin and E-cadherin
proliferation [10]: no effects
liver tumors (external tumor areas) [11]: significant reduction of liver tumors
homing of CRC cells to the liver (external metastatic areas) [12]: diminished homing of CRC cells to the liver
homing of CRC cells to the liver (external metastatic areas) [13]: diminished homing of CRC cells to the liver, which was significant
homing of CRC cells to the liver (external metastatic areas) [14]: diminished homing of CRC cells to the liver, which was significant
homing of CRC cells to the liver (external metastatic areas) [15]: diminished homing of CRC cells to the liver, which was significant
homing of CRC cells to the liver (external metastatic areas) [16]: diminished homing of CRC cells to the liver, which was significant
